A value given as a limit tells only on which side of the number the result lay.

Holding throughout (type): biochemical
Assay [1] addresses human Janus kinase 2 (JAK2), recombinant catalytic domain (Homo sapiens (Human), UniProt O60674). In words: LanthaScreen TR-FRET enzymatic assay, JAK2. The note with it: for IC50: TR-FRET, 1 mM ATP, GFP-STAT1 substrate, read-out: Inhibitory Activity IC50 JAK2; for Selectivity JAK2/JAK1: ratio of IC50 against JAK2 over IC50 against JAK1. The protocol: (§1) The in vitro inhibition of recombinant human JAKs was determined as follow.
(§2) Compounds were tested in LANTHASCREEN™ time-resolved fluorescence energy transfer (TR-FRET) enzymatic assays from Invitrogen. The human Janus kinase 1 (JAK1) used in the assay is the recombinant JAK1 catalytic domain (amino acids 866-1154) expressed and purified from insect cells (Invitrogen, Cat. No. PV4774). The human Janus kinase 2 (JAK2) used in the assay is the recombinant JAK2 catalytic domain (amino acids 808-1132) expressed and purified from insect cells (Invitrogen, Cat. No. PV4210). The human Janus kinase 3 (JAK3) used in the assay is the recombinant JAK3 catalytic domain (amino acids 781-1124) expressed and purified from insect cells (Invitrogen, Cat. No. PV3855). The human tyrosine kinase 2 (TYK2) used in the assay is the recombinant TYK2 catalytic domain (amino acids 833-1187) expressed and purified from insect cells (Invitrogen, Cat. No. PV4790). The substrate is a recombinant STAT1 expressed as a fusion with GFP (Green Fluorescent Protein) to act as a physiological substrate (Invitrogen, Cat. No. PV5211).
(§3) Test compounds were prepared and diluted in DMSO in 3-fold serial dilutions for 10 doses to 100× of the final testing concentrations. The compounds were then further diluted to 4× by the kinase reaction buffer (Invitrogen, Cat. No. PV3189). The enzymatic reaction for compound testing was performed in a white 384-well polypropylene plate (Packard, Cat. No. 6005214) with a total reaction volume of 10 μL containing 440 ng/mL JAK1, 11 ng/mL JAK2, 400 ng/mL JAK3, or 200 ng/mL TYK2, 100 nM substrate, and 1 mM ATP. The assay started with loading 2.5 μL of JAK1, JAK2, JAK3, or TYK2 diluted in the kinase reaction buffer to wells, followed by addition of an equal volume of 4× compounds for 15-min incubation at room temperature for pre-treatment. The enzymatic reaction was initiated by addition of 5 μL of a mixture of the substrate and ATP prepared in the kinase reaction buffer. After one hour reaction, 10 μL mixture of EDTA (final 10 mM) and terbium-labeled anti-pSTAT1 (pTyr701) antibody (final 2 nM) (Invitrogen, Cat. No. PV4844) prepared in TR-FRET antibody dilution buffer (Invitrogen, Cat. No. PV3574) was added to stop the enzymatic reaction and produce TR-FRET signals. After 30 minutes of incubation at room temperature, the plate was read in Tecan Infinite F200 Pro with the following settings: Excitation 340 nm (30)/Emission1 495 nm (10)/Emission2 520 nm (25). The TR-FRET values were dimensionless numbers that were calculated as the ratio of the acceptor ([…]) signal to the donor (Terbium) signal. Percent of inhibition was calculated as (100%−percentage of compound-treated/DMSO vehicle-treated). The dose-response curves were generated and the IC50s were calculated by nonlinear sigmoid curve fitting using GraphPad Prism.
(§4) In Table 1, A represents a value no greater than 500 nM, B represents a value greater than 500 nM but no greater than 1 μM, C represents a value greater than 1 μM but no greater than 5 μM, and D represents a value greater than 5 μM. In Table 2, A′ represents a ratio of greater than 8, B′ represents a ratio of no greater than 8 but no less than 4, C′ represents a ratio of no greater than 4 but no less than 2, and D′ represents a ratio of no greater than 2. The selectivity is expressed as a ratio of the IC50 values of a compound against two kinases to be compared.

Assay [2] has as its target human Janus kinase 1 (JAK1), recombinant catalytic domain (Homo sapiens (Human), UniProt P23458). In words: LanthaScreen TR-FRET enzymatic assay, JAK1. The following applies: 1 mM ATP, GFP-STAT1 substrate, read-out: Inhibitory Activity IC50 JAK1. The protocol: as §1, §2, §3, §4
In assay [3] the target is human tyrosine kinase 2 (TYK2), recombinant catalytic domain (Homo sapiens (Human), UniProt P29597). In words: LanthaScreen TR-FRET enzymatic assay, TYK2. The note with it: TR-FRET, 1 mM ATP, GFP-STAT1 substrate; read-out: Inhibitory Activity IC50 TYK2. The protocol: as §1, §2, §3, §4
Assay [4] has as its system human tyrosine kinase 2 (TYK2), recombinant catalytic domain. In words: LanthaScreen TR-FRET enzymatic assay, TYK2. The note with it: ratio of IC50 against TYK2 over IC50 against JAK1. The protocol:
as §1, §2, §3, §4

In assay [5] the test system is human Janus kinase 3 (JAK3), recombinant catalytic domain. In words: LanthaScreen TR-FRET enzymatic assay, JAK3. The following applies: ratio of IC50 against JAK3 over IC50 against JAK1. The protocol: as §1, §2, §3, §4
In assay [6] the target is human Janus kinase 3 (JAK3), recombinant catalytic domain (Homo sapiens (Human), UniProt P52333). In words: LanthaScreen TR-FRET enzymatic assay, JAK3. The note with it: TR-FRET, 1 mM ATP, GFP-STAT1 substrate; read-out: Inhibitory Activity IC50 JAK3. The procedure:
as §1, §2, §3, §4

human tyrosine kinase 2 (TYK2), recombinant catalytic domain (Homo sapiens (Human), UniProt P29597), sequence (P29597 833-1187): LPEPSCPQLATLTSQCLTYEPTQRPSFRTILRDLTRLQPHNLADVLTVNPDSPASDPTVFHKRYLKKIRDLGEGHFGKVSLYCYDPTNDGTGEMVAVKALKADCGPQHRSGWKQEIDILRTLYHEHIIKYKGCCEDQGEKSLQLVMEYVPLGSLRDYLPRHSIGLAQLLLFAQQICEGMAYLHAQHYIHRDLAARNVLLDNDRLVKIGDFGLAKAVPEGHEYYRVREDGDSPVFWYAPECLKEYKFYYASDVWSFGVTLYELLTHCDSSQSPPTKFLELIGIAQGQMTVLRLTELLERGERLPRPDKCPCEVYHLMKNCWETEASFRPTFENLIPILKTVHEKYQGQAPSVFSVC
human Janus kinase 1 (JAK1), recombinant catalytic domain, sequence (P23458 866-1154): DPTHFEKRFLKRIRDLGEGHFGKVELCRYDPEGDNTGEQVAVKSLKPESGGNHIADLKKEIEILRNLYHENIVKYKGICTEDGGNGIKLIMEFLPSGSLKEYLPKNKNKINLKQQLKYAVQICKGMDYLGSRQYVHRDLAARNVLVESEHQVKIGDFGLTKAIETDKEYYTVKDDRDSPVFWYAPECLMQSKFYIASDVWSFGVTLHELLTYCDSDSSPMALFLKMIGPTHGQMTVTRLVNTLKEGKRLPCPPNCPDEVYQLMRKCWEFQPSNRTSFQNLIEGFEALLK
human Janus kinase 2 (JAK2), recombinant catalytic domain, sequence (O60674 808-1132): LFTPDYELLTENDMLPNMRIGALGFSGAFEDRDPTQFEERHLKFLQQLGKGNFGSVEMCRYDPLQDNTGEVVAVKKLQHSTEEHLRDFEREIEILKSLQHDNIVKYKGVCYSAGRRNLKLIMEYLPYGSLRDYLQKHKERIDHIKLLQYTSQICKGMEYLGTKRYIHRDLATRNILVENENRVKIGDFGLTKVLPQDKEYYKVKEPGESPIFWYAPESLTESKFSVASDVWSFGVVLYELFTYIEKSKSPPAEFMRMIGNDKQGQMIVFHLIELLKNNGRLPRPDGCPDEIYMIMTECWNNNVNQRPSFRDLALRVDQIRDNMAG
human Janus kinase 3 (JAK3), recombinant catalytic domain (Homo sapiens (Human), UniProt P52333), sequence (P52333 781-1124): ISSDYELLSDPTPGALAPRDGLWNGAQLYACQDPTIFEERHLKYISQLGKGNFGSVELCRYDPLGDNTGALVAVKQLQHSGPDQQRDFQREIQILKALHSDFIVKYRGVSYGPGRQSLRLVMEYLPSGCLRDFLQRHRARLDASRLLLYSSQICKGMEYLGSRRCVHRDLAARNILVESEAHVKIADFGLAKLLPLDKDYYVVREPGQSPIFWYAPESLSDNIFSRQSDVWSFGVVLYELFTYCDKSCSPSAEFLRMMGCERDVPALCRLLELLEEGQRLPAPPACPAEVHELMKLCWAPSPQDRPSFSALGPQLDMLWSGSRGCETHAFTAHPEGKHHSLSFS

For the molecule `COc1ccc(-c2cccc3nc(NC(=O)C4CC4)cn23)cc1` [Compound 10], the IC50 in assay [1] is above 5 µM; in assay [2] it was 1 to 5 µM; in assay [3], above 5 µM; in assay [6], above 5 µM. In addition, the “Selectivity JAK2/JAK1” value in assay [1] is “A′ (A′ represents a ratio of greater than 8)”. In assay [4], the “Selectivity TYK2/JAK1” value is given as “A′ (A′ represents a ratio of greater than 8)”. Besides, in assay [5], the “Selectivity JAK3/JAK1” value is listed as “A′ (A′ represents a ratio of greater than 8)”.

As to `CC1(C)CN(C(=O)c2ccc(-c3cccc4nc(NC(=O)C5CC5)cn34)c(F)c2)C1` [Compound 23], the IC50 in assay [1] was above 5 µM; in assay [2] it was 0.5 to 1 µM; in assay [3], above 5 µM; in assay [6], above 5 µM. The “Selectivity JAK2/JAK1” value in assay [1] is “A′ (A′ represents a ratio of greater than 8)”. The “Selectivity TYK2/JAK1” value in assay [4] is recorded as “A′ (A′ represents a ratio of greater than 8)”. Also, the “Selectivity JAK3/JAK1” value in assay [5] is recorded as “A′ (A′ represents a ratio of greater than 8)”.

Take `CN1CCN(Cc2ccc(-c3cccc4nc(NC(=O)C5CC5)cn34)cc2)CC1` [Compound 5]: the IC50 in assay [1], in assay [2], in assay [3] and in assay [6] was above 5 µM throughout. Further, the “Selectivity JAK2/JAK1” value in assay [1] is “A′ (A′ represents a ratio of greater than 8)”. In addition, the “Selectivity TYK2/JAK1” value in assay [4] is listed as “A′ (A′ represents a ratio of greater than 8)”. Besides, the “Selectivity JAK3/JAK1” value in assay [5] is “A′ (A′ represents a ratio of greater than 8)”.

As for `N#CCc1ccc(-c2cccc3nc(NC(=O)C4CC4)cn23)c(F)c1` [Compound 16], the IC50 in assay [1] was above 5 µM; in assay [2], at most 0.5 µM; in assay [3], above 5 µM; in assay [6] it was above 5 µM. Besides, the “Selectivity JAK2/JAK1” value in assay [1] is given as “A′ (A′ represents a ratio of greater than 8)”. Besides, the “Selectivity TYK2/JAK1” value in assay [4] is recorded as “A′ (A′ represents a ratio of greater than 8)”. In assay [5], the “Selectivity JAK3/JAK1” value is recorded as “A′ (A′ represents a ratio of greater than 8)”.

On to `Cc1cc(-c2ccc(CN3CCS(=O)(=O)CC3)cc2)n2cc(NC(=O)C3CC3)nc2c1` [Compound 33], for which the IC50 in assay [1], in assay [2], in assay [3] and in assay [6] was above 5 µM in each case. Also, the “Selectivity JAK2/JAK1” value in assay [1] was “A′ (A′ represents a ratio of greater than 8)”. Further, in assay [4], the “Selectivity TYK2/JAK1” value is recorded as “A′ (A′ represents a ratio of greater than 8)”. Also, the “Selectivity JAK3/JAK1” value in assay [5] is reported as “A′ (A′ represents a ratio of greater than 8)”.

Consider `CC(C#N)c1ccc(-c2cccc3nc(NC(=O)C4CC4)cn23)cc1` (stereo not shown) [Compound 27], for which the IC50 was above 5 µM in assay [1], 0.5 to 1 µM in assay [2], above 5 µM in assay [3] and above 5 µM in assay [6]. Further, the “Selectivity JAK2/JAK1” value in assay [1] is given as “A′ (A′ represents a ratio of greater than 8)”. The “Selectivity TYK2/JAK1” value in assay [4] was “A′ (A′ represents a ratio of greater than 8)”. In assay [5], the “Selectivity JAK3/JAK1” value was “A′ (A′ represents a ratio of greater than 8)”.

As for `O=C(Nc1cn2c(-c3ccc(CN4CCOCC4)cc3)cccc2n1)C1CC1` [Compound 4], the IC50 was above 5 µM in assay [1], 0.5 to 1 µM in assay [2], above 5 µM in assay [3] and above 5 µM in assay [6]. The “Selectivity JAK2/JAK1” value in assay [1] is “A′ (A′ represents a ratio of greater than 8)”. The “Selectivity TYK2/JAK1” value in assay [4] was “A′ (A′ represents a ratio of greater than 8)”. Also, the “Selectivity JAK3/JAK1” value in assay [5] is “A′ (A′ represents a ratio of greater than 8)”.

As for `CC1(C)CN(Cc2ccc(-c3cccc4nc(NC(=O)C5CC5)cn34)cc2)C1` [Compound 25], the IC50 in assay [1], in assay [2], in assay [3] and in assay [6] was above 5 µM throughout. For the same molecule, in assay [1], the “Selectivity JAK2/JAK1” value was “A′ (A′ represents a ratio of greater than 8)”. In addition, in assay [4], the “Selectivity TYK2/JAK1” value is “A′ (A′ represents a ratio of greater than 8)”. Also, in assay [5], the “Selectivity JAK3/JAK1” value is reported as “A′ (A′ represents a ratio of greater than 8)”.

Turning to `Cc1ccc(-c2ccc(CN3CCS(=O)(=O)CC3)cc2)n2cc(NC(=O)C3CC3)nc12` [Compound 35], the IC50 in assay [1], in assay [2], in assay [3] and in assay [6] was above 5 µM each time.

Consider `O=C(Nc1cn2c(-c3cccc(CN4CCS(=O)(=O)CC4)c3)cccc2n1)C1CC1` [Compound 29], for which the IC50 in assay [1], in assay [2], in assay [3] and in assay [6] was above 5 µM throughout. Moreover, in assay [1], the “Selectivity JAK2/JAK1” value is given as “C′ (C′ represents a ratio of no greater than 4 but no less than 2)”. Further, in assay [4], the “Selectivity TYK2/JAK1” value is given as “C′ (C′ represents a ratio of no greater than 4 but no less than 2)”. Further, in assay [5], the “Selectivity JAK3/JAK1” value is on record as “A′ (A′ represents a ratio of greater than 8)”.

As to `Nc1cn2c(-c3ccc(CN4CCS(=O)(=O)CC4)cc3)cccc2n1` [Compound 19], the IC50 in assay [1], in assay [2], in assay [3] and in assay [6] was above 5 µM each time. Moreover, the “Selectivity JAK2/JAK1” value in assay [1] is on record as “A′ (A′ represents a ratio of greater than 8)”. The “Selectivity TYK2/JAK1” value in assay [4] is “C′ (C′ represents a ratio of no greater than 4 but no less than 2)”. Also, the “Selectivity JAK3/JAK1” value in assay [5] is on record as “D′ (D′ represents a ratio of no greater than 2)”.

`O=C(Nc1cn2c(-c3ccc(CN4CCCCC4)cc3)cccc2n1)C1CC1` [Compound 6]: the IC50 in assay [1] was above 5 µM; in assay [2], 1 to 5 µM; in assay [3] it was above 5 µM; in assay [6], above 5 µM. The “Selectivity JAK2/JAK1” value in assay [1] is “A′ (A′ represents a ratio of greater than 8)”. Further, the “Selectivity TYK2/JAK1” value in assay [4] was “A′ (A′ represents a ratio of greater than 8)”. Also, the “Selectivity JAK3/JAK1” value in assay [5] is “A′ (A′ represents a ratio of greater than 8)”.

For the molecule `O=C(Nc1cn2c(-c3ccc(CN4CCS(=O)(=O)CC4)cc3)cccc2n1)C1CCC1` [Compound 3], the IC50 was above 5 µM in assay [1], 1 to 5 µM in assay [2], above 5 µM in assay [3] and above 5 µM in assay [6]. Also, the “Selectivity JAK2/JAK1” value in assay [1] is given as “A′ (A′ represents a ratio of greater than 8)”. Moreover, in assay [4], the “Selectivity TYK2/JAK1” value is given as “A′ (A′ represents a ratio of greater than 8)”. Further, the “Selectivity JAK3/JAK1” value in assay [5] was “A′ (A′ represents a ratio of greater than 8)”.

In the case of `N#CC1(c2ccc(-c3cccc4nc(NC(=O)C5CC5)cn34)cc2)CC1` [Compound 22], the “Selectivity JAK2/JAK1” value in assay [1] is recorded as “A′ (A′ represents a ratio of greater than 8)”. In addition, the IC50 in assay [6] was above 5 µM.

`O=C(Nc1cn2c(-c3ccc(CN4CCS(=O)(=O)CC4)cc3)c(Cl)ccc2n1)C1CC1` [Compound 34]: the half-inhibitory concentration (IC50) in assay [1], in assay [2], in assay [3] and in assay [6] was above 5 µM throughout.
